Test results reported in PMC10819888, “Benzimidazole-Based Derivatives as Apoptotic Antiproliferative Agents: Design, Synthesis, Docking, and Mechanistic Studies” (Molecules, 2024).
One block for each molecule: values may come before it.

Experiments:
K-562 = experiment: NCI-60 five-dose assay; type: cell-based, human; conditions: K-562 (Leukemia), 48 h
CNS Cancer subpanel = experiment: NCI-60 five-dose assay, subpanel; type: cell-based, human
RPMI-8226 = experiment: NCI-60 five-dose assay; type: cell-based, human; conditions: RPMI-8226 (Leukemia), 48 h
OVCAR-8 = experiment: NCI-60 five-dose assay; type: cell-based, human; conditions: OVCAR-8 (Ovarian Cancer), 48 h
SN12C = experiment: NCI-60 five-dose assay; type: cell-based, human; conditions: SN12C (Renal Cancer), 48 h
NCI-H460 = experiment: NCI-60 five-dose assay; type: cell-based, human; conditions: NCI-H460 (Non-Small Cell Lung Cancer), 48 h
NCI-H226 = experiment: NCI-60 five-dose assay; type: cell-based, human; conditions: NCI-H226 (Non-Small Cell Lung Cancer), 48 h
NCI-H23 = experiment: NCI-60 five-dose assay; type: cell-based, human; conditions: NCI-H23 (Non-Small Cell Lung Cancer), 48 h
Leukemia subpanel = experiment: NCI-60 five-dose assay, subpanel; type: cell-based, human; conditions: Homo sapiens; Leukemia; average sensitivity of all subpanel cell lines; read-out: GI50 Subpanel MID b
DU-145 = experiment: NCI-60 five-dose assay; type: cell-based, human; conditions: DU-145 (Prostate Cancer), 48 h
786-0 = experiment: NCI-60 five-dose assay; type: cell-based, human; conditions: 786-0 (Renal Cancer), 48 h
HOP-92 = experiment: NCI-60 five-dose assay; type: cell-based, human; conditions: HOP-92 (Non-Small Cell Lung Cancer), 48 h
SF-268 = experiment: NCI-60 five-dose assay; type: cell-based, human; conditions: SF-268 (CNS Cancer), 48 h
SNB-19 = experiment: NCI-60 five-dose assay; type: cell-based, human; conditions: SNB-19 (CNS Cancer), 48 h
SK-OV-3 = experiment: NCI-60 five-dose assay; type: cell-based, human; conditions: SK-OV-3 (Ovarian Cancer), 48 h
CAKI-1 = experiment: NCI-60 five-dose assay; type: cell-based, human; conditions: CAKI-1 (Renal Cancer), 48 h
HS 578T = experiment: NCI-60 five-dose assay; type: cell-based, human; conditions: HS 578T (Breast Cancer), 48 h
HCT-116 = experiment: NCI-60 five-dose assay; type: cell-based, human; conditions: HCT-116 (Colon Cancer), 48 h
SW-620 = experiment: NCI-60 five-dose assay; type: cell-based, human; conditions: SW-620 (Colon Cancer), 48 h
OVCAR-4 = experiment: NCI-60 five-dose assay; type: cell-based, human; conditions: OVCAR-4 (Ovarian Cancer), 48 h
MOLT-4 = experiment: NCI-60 five-dose assay; type: cell-based, human; conditions: MOLT-4 (Leukemia), 48 h
MDA-MB-468 = experiment: NCI-60 five-dose assay; type: cell-based, human; conditions: MDA-MB-468 (Breast Cancer), 48 h
HCC-2998 = experiment: NCI-60 five-dose assay; type: cell-based, human; conditions: HCC-2998 (Colon Cancer), 48 h
UACC-257 = experiment: NCI-60 five-dose assay; type: cell-based, human; conditions: UACC-257 (Melanoma), 48 h
SF-295 = experiment: NCI-60 five-dose assay; type: cell-based, human; conditions: SF-295 (CNS Cancer), 48 h
[1] = Homo sapiens, read-out: GI50 Conc. per Cell Line
[2] = Homo sapiens, read-out: LC50 (the source's name)

melting point: 283 to 285 °C
Compound: CN(C)c1ccc(C=NNC(=O)c2ccc3[nH]c(-c4ccc(Cl)cc4)nc3c2)cc1 [Compound 4b, N′-(4-(Dimethylamino)benzylidene)-2-(4-chlorophenyl)-1H-benzimidazole-5-carbohydrazide]

Compound: O=C(NN=Cc1ccc([N+](=O)[O-])cc1)c1ccc2[nH]c(-c3ccc(Cl)cc3)nc2c1 [Compound 4c, N′-(4-Nitrobenzylidene)-2-(4-chlorophenyl)-1H-benzimidazole-5-carbohydrazide]
GI50 (K-562; Homo sapiens, K562, read-out: GI50 Conc. per Cell Line): 0.499 µM
CC50 (K-562; Homo sapiens, K562, read-out: LC50 (the source's name)): 54.6 µM
TGI (K-562): 8.44 µM
GI50 Selectivity Ratio (MID a/MID b) (CNS Cancer subpanel; CNS Cancer subpanel): 0.81
GI50 (CNS Cancer subpanel; Homo sapiens, CNS Cancer, average sensitivity of all subpanel cell lines, read-out: GI50 Subpanel MID b): 4.05 µM
GI50 (RPMI-8226; [1]): 0.461 µM
CC50 (RPMI-8226; [2]): > 100 µM
TGI (RPMI-8226): 2.41 µM
GI50 (OVCAR-8; [1]): 2.89 µM
CC50 (OVCAR-8; [2]): > 100 µM
TGI (OVCAR-8): 13.70 µM
GI50 (SN12C; [1]): 3.14 µM
CC50 (SN12C; [2]): > 100 µM
TGI (SN12C): 18.10 µM
GI50 (NCI-H460; [1]): 2.1 µM
TGI (NCI-H460): 4.49 µM
GI50 (NCI-H226; [1]): 5.03 µM
CC50 (NCI-H226; [2]): > 100 µM
TGI (NCI-H226): 31.20 µM
GI50 (NCI-H23; [1]): 1.85 µM
CC50 (NCI-H23; [2]): 67.6 µM
TGI (NCI-H23): 11.50 µM
GI50 (Leukemia subpanel): 0.55 µM
TGI (DU-145): 21.40 µM
GI50 (DU-145; [1]): 3.99 µM
CC50 (DU-145; [2]): > 100 µM
TGI (786-0): 15.70 µM
GI50 (786-0; [1]): 3.92 µM
CC50 (786-0; [2]): 58.2 µM
TGI (HOP-92): 7.52 µM
GI50 (HOP-92; [1]): 0.985 µM
GI50 (SF-268; [1]): 4.97 µM
CC50 (SF-268; [2]): > 100 µM
TGI (SF-268): 24.30 µM
GI50 (SNB-19; [1]): 7.48 µM
CC50 (SNB-19; [2]): > 100 µM
TGI (SNB-19): 32.40 µM
GI50 (SK-OV-3; [1]): 11.4 µM
CC50 (SK-OV-3; [2]): > 100 µM
TGI (SK-OV-3): 39.60 µM
TGI (CAKI-1): 16.10 µM
GI50 (CAKI-1; [1]): 3.49 µM
CC50 (CAKI-1; [2]): 85.4 µM
TGI (HS 578T): 24.40 µM
GI50 (HS 578T; [1]): 3.58 µM
CC50 (HS 578T; [2]): > 100 µM
TGI (HCT-116): 6.90 µM
GI50 (HCT-116; [1]): 2.25 µM
CC50 (HCT-116; [2]): 82.3 µM
GI50 (SW-620; [1]): 3.44 µM
TGI (SW-620): 10.80 µM
GI50 (OVCAR-4; [1]): 2.75 µM
CC50 (OVCAR-4; [2]): > 100 µM
TGI (OVCAR-4): 8.64 µM
GI50 (MOLT-4; [1]): 0.421 µM
CC50 (MOLT-4; [2]): > 100 µM
TGI (MOLT-4): 3.85 µM
GI50 (MDA-MB-468; [1]): 1.97 µM
TGI (MDA-MB-468): 4.79 µM
TGI (HCC-2998): 4.81 µM
GI50 (HCC-2998; [1]): 1.48 µM
CC50 (HCC-2998; [2]): 28.1 µM
GI50 (UACC-257; [1]): 3.37 µM
CC50 (UACC-257; [2]): > 100 µM
TGI (UACC-257): 15.40 µM
GI50 (SF-295; [1]): 3.4 µM
CC50 (SF-295; [2]): 43.8 µM
TGI (SF-295): 13.10 µM

melting point: 285 to 287 °C
Compound: O=C(NN=Cc1ccc(F)cc1)c1ccc2[nH]c(-c3ccc(Cl)cc3)nc2c1 [Compound 4d, N′-(4-Fluorobenzylidene)-2-(4-chlorophenyl)-1H-benzimidazole-5-carbohydrazide]

melting point: 294 to 297 °C
Compound: O=C(NN=Cc1ccc(Cl)cc1Cl)c1ccc2[nH]c(-c3ccc(Cl)cc3)nc2c1 [Compound 4f, N′-(2,4-Dichlorobenzylidene)-2-(4-chlorophenyl)-1H-benzimidazole-5-carbohydrazide]

melting point: 263 to 265 °C
Compound: O=C(N/N=C/c1ccc(O)cc1)c1ccc2[nH]c(-c3ccc(Cl)cc3)nc2c1 [Compound 4i, N′-(4-Hydroxybenzylidene)-2-(4-chlorophenyl)-1H-benzimidazole-5-carbohydrazide]

melting point: 292 to 294 °C
Compound: CCn1c(-c2ccc3[nH]c(-c4ccc(Cl)cc4)nc3c2)n[nH]c1=S [Compound 6, 4-ethyl-5-(2-(4-chlorophenyl)-1H-benzimidazol-5-yl)-2,4-dihydro-3H-1,2,4triazole-3-thione]
